Results taken from patent US20180346505A1, “MONONUCLEOTIDES HAVING A BIOREVERSIBLE DISULFIDE GROUP” (priority 2014, published 2018).
Values joined by “and” are separate entries in the source; they are usually repeats but may differ in a detail not shown here. Identical values can stand only once. Like-named read-outs stand apart in the source and are kept apart here.

What was measured:
[1] = test system: GT1a (H77) HCV replicon; assay: HCV replicon assay, wild type GT1a (H77), luciferase based, stable format; type: cell-based, hepatitis C virus; conditions: Huh-7 cells
Procedure: (§1) The antiviral activity of the test compounds was assessed in the wild type GT1b (Con1), GT1a (H77), and GT1b/2a, GT1b/3a, GT1b/4a and GT1b/5a NS5B chimeric replicons, as well as the NS5B mutant replicons listed in Table 2a and 2b.
(§2) All the replicon assays were luciferase based in Huh-7 cells, either in stable format (GT1b and GT1a) or by transient transfection by electroporation (chimeric and mutant replicons). For a standard HCV replicon assay, stable or transiently transfected Huh-7 cells were seeded in 96-well plates (5,000 cells/well), cultured in DMEM containing 10% FBS, and incubated at 37° C., 5% CO2. On the following day, test compounds were diluted with assay media and added to the appropriate wells (final DMSO concentration in the cell culture medium was 0.5%). Assay reference positive control was included in each run to ensure assay performance. Cells were incubated at 37° C., 5% CO2 for 72 hours, at which time the cells were still sub-confluent. The antiviral activity was determined by measuring replicon reporter firefly luciferase activity using Bright Glo kit in accordance with the protocol provided by the supplier (Promega). The toxicity of the test compounds was assessed by CytoTox-1 cell proliferation assay (Promega). The half maximal effective concentration (EC50) and the half maximal toxic concentration (TC50) values were calculated using the GraphPad Prism software.

[2] = test system: GT1b (Con1) HCV replicon; assay: HCV replicon assay, wild type GT1b (Con1), luciferase based, stable format; type: cell-based, hepatitis C virus; conditions: Huh-7 cells, 72 hours
Procedure: as §1, §2

[3] = test system: GT1b/2a NS5B chimeric replicon; assay: HCV replicon assay, GT1b/2a NS5B chimeric replicon, transient transfection; type: cell-based, hepatitis C virus
Procedure: as §1
(§3) To generate HCV NS5B chimeric replicons, the GT1 b replicon was used as a backbone with the NS5B gene replaced with the NS5B gene of GT2a, GT3a, GT4a and GT5a derived from clinical isolates. These NS5B genes were cloned into the GT1b backbone and were confirmed by sequencing.
as §2

[4] = test system: GT1b/3a NS5B chimeric replicon; assay: HCV replicon assay, GT1b/3a NS5B chimeric replicon, transient transfection; type: cell-based, hepatitis C virus; conditions: read-out: GT3a EC50; GT1b/3a NS5B chimeric replicon, Huh-7 cells, luciferase, 72 hours
Procedure: as §1, §3, §2

[5] = test system: GT1b/4a NS5B chimeric replicon; assay: HCV replicon assay, GT1b/4a NS5B chimeric replicon, transient transfection; type: cell-based, hepatitis C virus
Procedure: as §1, §3, §2

[6] = test system: GT1b/5a NS5B chimeric replicon; assay: HCV replicon assay, GT1b/5a NS5B chimeric replicon, transient transfection; type: cell-based, hepatitis C virus
Procedure: as §1, §3, §2

[7] = test system: Huh-7 cells; assay: Toxicity by CytoTox-1 cell proliferation assay (TC50) and selectivity index; type: cell-based; conditions: TC50 by CytoTox-1 cell proliferation assay over replicon EC50, Huh-7 cells
Procedure: as §2

[8] = test system: GT1a S282T NS5B mutant replicon; assay: HCV NS5B mutant replicon assay, GT1a S282T; type: cell-based; conditions: Hepatitis C virus, Huh-7, 72 h, read-out: GT1a S282T EC50
Procedure: as §1
(§4) The HCV replicon mutants were generated by site-directed mutagenesis (SDM). The SDM was performed by PCR and the PCR fragments were inserted into the backbone replicon construct. The inserted PCR fragments and the mutants were confirmed by sequencing.
as §2

[9] = test system: GT1a L159F NS5B mutant replicon; assay: HCV NS5B mutant replicon assay, GT1a L159F; type: cell-based; conditions: Hepatitis C virus, Huh-7, 72 h, read-out: GT1a L159F EC50
Procedure: as §1, §4, §2

[10] = test system: GT1b S282T NS5B mutant replicon; assay: HCV NS5B mutant replicon assay, GT1b S282T; type: cell-based; conditions: Hepatitis C virus, Huh-7, 72 h, read-out: GT1b S282T EC50
Procedure: as §1, §4, §2

[11] = test system: GT1b S96T NS5B mutant replicon; assay: HCV NS5B mutant replicon assay, GT1b S96T; type: cell-based; conditions: Hepatitis C virus, Huh-7, 72 h, read-out: GT1b S96T EC50
Procedure: as §1, §4, §2

[12] = test system: GT1b L159F NS5B mutant replicon; assay: HCV NS5B mutant replicon assay, GT1b L159F; type: cell-based; conditions: Hepatitis C virus, Huh-7, 72 h, read-out: GT1b L159F EC50
Procedure: as §1, §4, §2

[13] = test system: GT1b C316N NS5B mutant replicon; assay: HCV NS5B mutant replicon assay, GT1b C316N; type: cell-based; conditions: Hepatitis C virus, Huh-7, 72 h, read-out: GT1b C316N EC50
Procedure: as §1, §4, §2

[14] = test system: GT3a S282T NS5B mutant replicon; assay: HCV NS5B mutant replicon assay, GT3a S282T; type: cell-based; conditions: Hepatitis C virus, Huh-7, 72 h, read-out: GT3a S282T EC50
Procedure: as §1, §3, §4, §2

[15] = test system: GT3a L159F NS5B mutant replicon; assay: HCV NS5B mutant replicon assay, GT3a L159F; type: cell-based; conditions: Hepatitis C virus, Huh-7, 72 h, read-out: GT3a L159F EC50
Procedure: as §1, §3, §4, §2

[16] = test system: GT3a V321A NS5B mutant replicon; assay: HCV NS5B mutant replicon assay, GT3a V321A; type: cell-based; conditions: Hepatitis C virus, Huh-7, 72 h, read-out: GT3a V321A EC50
Procedure: as §1, §3, §4, §2

[17] = Nucleoside phosphoester stability in simulated gastric fluid; type: in vitro ADME; conditions: simulated gastric fluid pH 1.2, 2 μM, 37° C.
Procedure: Test compounds at 2 μM were incubated at 37° C. with simulated gastric fluid (SGF, 0.2% (w/v) sodium chloride in 0.7% (v/v) hydrochloric acid, deionized water, 0.3% pepsin (w/v), pH 1.2). Duplicate samples were used. Samples were removed at 0, 15, 30, 60, 120, 360 and 1440 min, immediately mixed with cold acetonitrile containing internal standard (IS), and stored at −80° C. before analysis. Omeprazole was used as a positive control. Samples were analyzed by LC/MS/MS method, and disappearance of test compound was assessed by comparison of peak area ratios of analyte/IS and reported as % test compound remaining at each time point.

[18] = Nucleoside phosphoester stability in simulated intestinal fluid; type: in vitro ADME; conditions: simulated gi fluid, 2 μM, pH 6.8
Procedure: Test compounds at 2 μM were incubated at 37° C. with simulated intestinal fluid (SIF), which contains 0.68% (w/v) monobasic potassium phosphate and 1% (w/v) pancreatin in ultra-pure water (pH 6.8). Duplicate samples were used. Samples were removed at 0, 15, 30, 60, 120, 360 and 1440 min, immediately mixed with cold acetonitrile containing an internal standard (IS), and stored at −80° C. before analysis. Chlorambucil was used as a positive control. Samples were analyzed by a LC/MS/MS method, and disappearance of test compound was assessed by comparison of peak area ratios of analyte/IS and reported as % test compound remaining at each time point.

[19] = read-out: GT2a EC50, GT1b/2a NS5B chimeric replicon, Huh-7 cells, luciferase, 72 hours
[20] = read-out: GT4a EC50, GT1b/4a NS5B chimeric replicon, Huh-7 cells, luciferase, 72 hours
[21] = read-out: GT5a EC50, GT1b/5a NS5B chimeric replicon, Huh-7 cells, luciferase, 72 hours

CC(C)(C)SSc1ccccc1CCOP1(=O)OC[C@H]2O[C@@H](n3ccc(N)nc3=O)[C@](C)(N)[C@@H]2O1 (single isomer, unassigned) [Compound 19B]
EC50 ([1]; 72 hours): 858 nM | EC50 [2]: 1030 nM | EC50 [3, 19]: 780 nM | EC50 [4]: 1340 nM | EC50 [5, 20]: 344 nM | EC50 [6, 21]: 1350 nM

CC(C)(C)SSc1ccccc1CCOP1(=O)OC[C@H]2O[C@@H](n3ccc(N)nc3=O)[C@](C)(N)[C@@H]2O1 (single isomer, unassigned) [Compound 19A]
EC50 ([1]; 72 hours): 169 nM | EC50 [2]: 177 nM | EC50 [3, 19]: 151 nM | EC50 [4]: 228 nM | EC50 [5, 20]: 77 nM | EC50 [6, 21]: 288 nM

CC(C)(C)SSc1ccccc1CCOP1(=O)OC[C@H]2O[C@@H](n3ccc(N)nc3=O)[C@](C)(F)[C@@H]2O1 (single isomer, unassigned) [Compound 9A]
EC50 ([1]; Hepatitis C virus, GT1A, Huh-7, 72 h): 3 to 6 nM | EC50 [2]: 7 nM and 4 to 5 nM | EC50 ([3]; Hepatitis C virus, Huh-7, 72 h, read-out: GT2a EC50, GT1b/2a NS5B chimeric replicon, Huh-7 cells, luciferase, 72 hours): 3 nM | EC50 [4]: 6 nM and 4 to 6 nM | EC50 ([5]; Hepatitis C virus, Huh-7, 72 h, read-out: GT4a EC50, GT1b/4a NS5B chimeric replicon, Huh-7 cells, luciferase, 72 hours): 3 nM | EC50 ([6]; Hepatitis C virus, Huh-7, 72 h, read-out: GT5a EC50, GT1b/5a NS5B chimeric replicon, Huh-7 cells, luciferase, 72 hours): 2 nM | Selectivity Index (TC50/EC50) [7]: >500 | EC50 [8]: 6 to 35 nM | EC50 [9]: 10 nM | EC50 [10]: 23 to 25 nM | EC50 [11]: 7 nM | EC50 [12]: 9 nM | EC50 [13]: 4 nM | EC50 [14]: 6 to 18 nM | EC50 [15]: 8 nM | EC50 [16]: 12 nM | % Remaining ([17]; 0 min): 100.00% | % Remaining ([17]; 15 min): 107.89% | % Remaining ([17]; 30 min): 102.51% | % Remaining ([17]; 60 min): 97.63% | % Remaining ([17]; 120 min): 94.89% | % Remaining ([17]; 360 min): 91.06% | % Remaining ([17]; 1440 min): 76.22% | % Remaining ([18]; 0 h): 100.00% | % Remaining ([18]; 0.25 h): 99.21% | % Remaining ([18]; 0.5 h): 103.81% | % Remaining ([18]; 1 h): 103.14% | % Remaining ([18]; 2 h): 109.48% | % Remaining ([18]; 6 h): 101.64% | % Remaining ([18]; 24 h): 98.27%
